target: T1, Adrenergic receptor alpha-2 (Rattus norvegicus, UniProt P22086+P19328+P22909); test: Displacement of [3H]clonidine from adrenergic alpha2 receptor in Sprague-Dawley rat cortex membrane; assay type: cell membranes
T1 sequence (P22086 whole entry): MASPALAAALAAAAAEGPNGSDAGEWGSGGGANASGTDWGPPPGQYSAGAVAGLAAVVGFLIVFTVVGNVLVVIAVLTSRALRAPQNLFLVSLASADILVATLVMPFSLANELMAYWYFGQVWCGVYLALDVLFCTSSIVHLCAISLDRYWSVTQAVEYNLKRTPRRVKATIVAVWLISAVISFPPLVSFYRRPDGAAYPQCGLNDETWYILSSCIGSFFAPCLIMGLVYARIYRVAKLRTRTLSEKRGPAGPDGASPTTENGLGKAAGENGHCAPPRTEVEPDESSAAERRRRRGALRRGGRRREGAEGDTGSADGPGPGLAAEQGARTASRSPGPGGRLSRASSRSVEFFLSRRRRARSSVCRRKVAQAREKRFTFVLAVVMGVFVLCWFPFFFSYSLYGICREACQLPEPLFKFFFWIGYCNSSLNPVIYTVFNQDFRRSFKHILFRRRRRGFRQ
T1 sequence (P19328 whole entry): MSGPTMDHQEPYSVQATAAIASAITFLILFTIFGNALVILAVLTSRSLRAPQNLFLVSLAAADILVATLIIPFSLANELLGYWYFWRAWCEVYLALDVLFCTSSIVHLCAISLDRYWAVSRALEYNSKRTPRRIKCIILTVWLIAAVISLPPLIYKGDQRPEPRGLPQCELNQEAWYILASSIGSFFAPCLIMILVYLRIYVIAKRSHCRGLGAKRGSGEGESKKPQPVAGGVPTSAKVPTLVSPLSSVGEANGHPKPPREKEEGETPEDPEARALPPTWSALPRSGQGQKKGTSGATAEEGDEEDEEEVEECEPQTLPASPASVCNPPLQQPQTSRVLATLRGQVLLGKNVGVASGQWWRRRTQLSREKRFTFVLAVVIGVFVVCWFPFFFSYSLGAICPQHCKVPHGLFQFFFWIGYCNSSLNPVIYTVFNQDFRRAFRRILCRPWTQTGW
T1 sequence (P22909 whole entry): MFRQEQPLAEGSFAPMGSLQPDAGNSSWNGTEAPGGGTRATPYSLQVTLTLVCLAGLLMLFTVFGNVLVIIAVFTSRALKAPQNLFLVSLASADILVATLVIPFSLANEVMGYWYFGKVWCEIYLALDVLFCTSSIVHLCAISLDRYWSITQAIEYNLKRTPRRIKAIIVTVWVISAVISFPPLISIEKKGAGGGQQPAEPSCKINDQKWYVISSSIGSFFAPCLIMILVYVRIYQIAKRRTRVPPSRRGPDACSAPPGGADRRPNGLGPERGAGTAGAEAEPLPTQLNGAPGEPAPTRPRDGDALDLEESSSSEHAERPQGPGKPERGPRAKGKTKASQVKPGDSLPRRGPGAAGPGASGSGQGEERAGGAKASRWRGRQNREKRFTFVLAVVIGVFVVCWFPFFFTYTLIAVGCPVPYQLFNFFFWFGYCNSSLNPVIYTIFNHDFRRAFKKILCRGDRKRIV

| Ki [nM] | SMILES |
| --- | --- |
| 410 | O=[N+]([O-])c1cccc2c3c(ccc12)CCNC3 |
| 100 | Brc1cccc2c3c(ccc12)CCNC3 |
| 11 | Oc1cccc2c3c(ccc12)CCNC3 |
| 590 | N#Cc1cccc2c3c(ccc12)CCNC3 |
| 160 | COc1cccc2c3c(ccc12)CCNC3 |
| 16 | c1ccc2c3c(ccc2c1)CCNC3 |
| 2900 | NS(=O)(=O)c1cccc2c3c(ccc12)CCNC3 |

tested on: not listed separately; test: Selectivity for human PNMT over Sprague-Dawley rat adrenergic alpha-2 receptor

| SMILES | Ratio Ki |
| --- | --- |
| c1ccc2c(c1)CCNC2 | 0.06 |

From ChEMBL document CHEMBL1146307, “Exploring the active site of phenylethanolamine N-methyltransferase with 1,2,3,4-tetrahydrobenz[h]isoquinoline inhibitors” (Bioorg Med Chem, 2007)
